8 compounds from US6927229B2 (dated 2005) can be followed below.

As usually defined, the melting point is the temperature of the solid-liquid transition.

Turning to `O=C1O[C@@H](CNC(=S)C(F)F)CN1c1ccc(N2CCCS(=O)(=O)CC2)c(F)c1`, the melting point lay in the range of 128 to 130 °C.

For `O=C1O[C@@H](CNC(=S)C(F)F)CN1c1cc(F)c(N2CCS(=O)(=O)CC2)c(F)c1`, the melting point is 88 to 90 °C.

In turn, `O=C1O[C@@H](CNC(=S)C(F)F)CN1c1cc(F)c(C2CCS(=O)(=O)CC2)c(F)c1` gave a melting point of 126 to 128 °C.

`O=C1O[C@@H](CNC(=S)C(F)F)CN1c1ccc(N2CCS(=O)(=O)CC2)cc1`: the melting point was in the range of 126 to 127 °C.

`O=C1O[C@@H](CNC(=S)C(F)F)CN1c1ccc(N2CC[S+]([O-])CC2)cc1` had a melting point of 155 to 156 °C.

`O=C1O[C@@H](CNC(=S)C(F)F)CN1c1ccc(C2CCS(=O)(=O)CC2)cc1` showed a melting point of 174 to 176 °C.

For `O=C1O[C@@H](CNC(=S)C(F)F)CN1c1ccc(N2CCS(=O)(=O)CC2)c(F)c1`, the melting point lay within 146 to 147 °C.

As for `O=C1O[C@@H](CNC(=S)C(F)F)CN1c1ccc(C2CCS(=O)(=O)CC2)c(F)c1`, the melting point was 168 to 169 °C.
